{"source": "paper PMC10310857", "about": "(Nature Communications, 2023)", "target": "Pst_13661 (Puccinia striiformis f. sp. tritici, UniProt A0A0L0V0Y3, T32S)", "type": "biochemical", "conditions": "100 µM", "data": [{"compound": "O=C(NO)c1ccccc1", "note": "[Compound 1, benzohydroxamic acid]", "values": [{"measurement": "Inhibition Rate Pst_13661 Mean", "result": 100.8, "unit": "%"}]}]}
